Measured values from patent US12114987B2, “Perception loss detection” (OXFORD UNIVERSITY INNOVATION LIMITED, priority 2012, dated 2024).

Tested on: slow wave oscillations in the scalp electroencephalogram
Text: Multiple electrodes, including Magnetic Resonance (hereinafter “MR”) compatible 32 channel electroencephalography (hereinafter “EEG”) caps (BrainCap MR, Easycap GmbH, Herrsching, Germany) are used in the illustrated example for EEG acquisition.
Amplifiers are connected in the illustrated example using MR-safe fibre optic cables to a universal serial bus (USB) adaptor and then to a laptop computer (or other recording and EEG processing medium), which includes the processor 18 and the database 19. The laptop simultaneously records the timings of fMRI volumes (gradient onset markers), stimuli and button presses. For the paradigm in FIG. 5, samples of the electrical signals are acquired at 5000 Hz and initially referenced to channel CPz. The amplification hardware imposes a highpass filter of 0.1 Hz and a lowpass filter of 250 Hz on acquisition. The acquisition software applies a highpass filter of 0.5 Hz and a lowpass filter of 70 Hz as well as a notch filter of 50 Hz. […]
For time-frequency analysis, the frequency power spectrum over time within the 0.5-30 Hz range is calculated using a multitaper spectral analysis (using Chronux®) with window size=3 s and step size=4s. Phasic changes in EEG absolute and relative power in the specific frequency bands of interest, i.e. beta (15-30 Hz), alpha (9-14 Hz), theta (4-8 Hz) and slow wave (0.5-1.5 Hz) bands, are calculated. […]

CC(C)c1cccc(C(C)C)c1O [propofol]
peak absolute power of slow wave oscillations (0.5-1.5 Hz band), range between subjects (16 subjects, gradual propofol administration, peak propofol level 4.0 mcg ml−1, scalp EEG): 10.84-83.78 μV2 | activity of slow wave oscillations in the scalp electroencephalogram with increasing doses (after the human has lost verbal responsiveness, increasing doses of propofol): reaches a maximum or saturation point
